How the values were obtained:
Male NMRI mice [1] = test: Forced swimming test (FST); assay type: in vivo; conditions: doses of 5 and 10 mg/kg p.o., may be a false positive from nonspecific stimulatory effect
Procedure: The aim of this study was to evaluate the antidepressant activity of radiprodil. The forced swimming test is a behavioral assay that can be used to predict antidepressant efficacy of drugs in humans.
(§1) Male NMRI mice weighing 24-26 g were used. The animals were kept in polycarbonate cages in a thermostatically controlled room at 24+2° C. and at a relative humidity (RH) of 50±10%. The room was artificially illuminated from 6 am to 6 pm and the mice were given commercial pellet rat-mouse feed, autoclaved at 105° C. and sterile filtered tap water, ad libitum.
(§2) An aqueous solution of radiprodil, in the form of a complex with heptakis(2,6-di-O-methyl)-β-cyclodextrin(DIMEB), was administered orally at doses of 2.5, 5 and 10 mg/kg (calculated for non-complexed radiprodil). […]
The forced swimming test (FST) was measured in glass cylinders (height: […], diameter 14 cm) containing 12 cm of water, maintained at 23-25° C. […] The duration of immobility was recorded using a stopwatch. […]
In the forced swimming test, the mean±standard error on the mean (s.e.m) immobility time in seconds was measured. […] The mean (±s.e.m) “FST-activity” value was also calculated for each group and submitted to the same data analysis process as the immobility data.
The significance of the drug effect was determined by ANOVA followed by post-hoc Duncan-test. […]

Male NMRI mice [2] = test: Spontaneous locomotor activity; assay type: in vivo; conditions: doses of 5 and 10 mg/kg p.o.
Procedure: as §1, §2
Spontaneous locomotor activity was measured in a four-channel activity monitor manufactured by Farmakotechnika (Hungary). […] The photocell beam, when broken, signaled a count, which was then recorded by a computer.
Each group consisted of 10 animals. […] The horizontal and vertical movements were determined as the number of beam interruptions collected in 15 minute intervals throughout the 1 hour period.
In the spontaneous locomotor activity test, the mean (±s.e.m) value of one hour horizontal activity data (in counts) of each group was calculated.
The significance of the drug effect was determined by ANOVA followed by post-hoc Duncan-test. The percentage change in the horizontal activity, immobility or “FST-activity” variables were calculated for each dose according to the equation; […]

## O=C(Nc1ccc2[nH]c(=O)oc2c1)C(=O)N1CCC(Cc2ccc(F)cc2)CC1 [radiprodil, 2-[4-(4-fluoro-benzyl)-piperidine-1-yl]-2-oxo-N-(2-oxo-2,3-dihydro-benzoxazol-6-yl)acetamide]
Male NMRI mice [1]
  effect in the forced swimming test (in words): significant effects
Male NMRI mice [2]
  effect on spontaneous motor activity (in words): stimulated the spontaneous motor activity

— patent publication US20110190348A1, “METHODS FOR TREATING CNS DISORDERS” (priority 2008, published 2011)
